Values joined by “and” are separate entries in the source; they are usually repeats but may differ in a detail not shown here. Identical values can stand only once. Counter-ions that a name gives are not always drawn. Like-named read-outs stand apart in the source and are kept apart here.
Legend:
[1] = target: T1, angiotensin-converting enzyme (ACE) isolated from pig's renal cortex (Sus scrofa, UniProt F1RRW5); test: ACE-inhibitory activity in vitro (histidyl-leucine released from hippuryl-histidyl-leucine); assay type: biochemical
T1 construct: isolated from pig's renal cortex; from tissue; host or cells: pig renal cortex
T1 sequence (F1RRW5 34-1309): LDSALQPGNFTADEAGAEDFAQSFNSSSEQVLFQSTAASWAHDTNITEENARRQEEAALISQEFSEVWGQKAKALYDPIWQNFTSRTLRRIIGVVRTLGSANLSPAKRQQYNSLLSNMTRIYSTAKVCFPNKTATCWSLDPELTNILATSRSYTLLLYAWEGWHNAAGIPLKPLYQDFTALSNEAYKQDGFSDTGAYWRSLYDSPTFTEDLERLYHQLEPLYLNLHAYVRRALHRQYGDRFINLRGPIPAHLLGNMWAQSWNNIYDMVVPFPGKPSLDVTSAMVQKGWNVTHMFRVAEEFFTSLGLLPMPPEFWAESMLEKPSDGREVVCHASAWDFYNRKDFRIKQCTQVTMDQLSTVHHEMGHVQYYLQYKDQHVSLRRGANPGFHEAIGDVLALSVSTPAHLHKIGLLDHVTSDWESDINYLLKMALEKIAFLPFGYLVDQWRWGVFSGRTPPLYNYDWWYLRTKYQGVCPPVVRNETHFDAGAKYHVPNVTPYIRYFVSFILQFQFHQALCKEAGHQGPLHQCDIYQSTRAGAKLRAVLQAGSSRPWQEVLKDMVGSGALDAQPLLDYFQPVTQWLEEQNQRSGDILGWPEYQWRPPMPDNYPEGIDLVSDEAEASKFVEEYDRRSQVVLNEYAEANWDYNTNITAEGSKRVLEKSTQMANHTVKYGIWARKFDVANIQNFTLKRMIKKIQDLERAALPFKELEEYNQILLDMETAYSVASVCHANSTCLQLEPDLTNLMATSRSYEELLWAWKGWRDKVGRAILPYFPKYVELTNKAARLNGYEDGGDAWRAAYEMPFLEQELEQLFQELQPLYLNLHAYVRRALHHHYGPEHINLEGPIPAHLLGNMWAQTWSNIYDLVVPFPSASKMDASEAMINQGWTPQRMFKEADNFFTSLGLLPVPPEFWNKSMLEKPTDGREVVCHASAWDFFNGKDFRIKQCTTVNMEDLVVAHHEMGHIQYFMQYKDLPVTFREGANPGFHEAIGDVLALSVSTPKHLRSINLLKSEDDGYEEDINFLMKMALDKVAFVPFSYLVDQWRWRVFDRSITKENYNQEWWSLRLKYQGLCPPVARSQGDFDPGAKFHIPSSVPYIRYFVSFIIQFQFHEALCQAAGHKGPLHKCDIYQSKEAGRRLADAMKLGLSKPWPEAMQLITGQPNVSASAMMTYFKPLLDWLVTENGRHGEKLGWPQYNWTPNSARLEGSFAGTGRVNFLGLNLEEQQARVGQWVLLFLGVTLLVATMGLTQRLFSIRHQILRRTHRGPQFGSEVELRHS
Protocol: ACE-inhibitory activity in vitro:
50 μl of a solution containing 0.01 mole/liter of hippuryl-histidyl-leucine (substrate) and 0-100 μl of a test compound solution were added to 300 μl of a 0.2M trishydrochloric acid buffer solution containing 0.2 mole/liter of sodium chloride. The total volume of said mixture was adjusted to 450 μl with water. Then, 50 μl of angiotensin -converting enzyme (ACE) isolated from pig's renal cortex were added to the mixture, and the mixture was allowed to stand at 37° C. for 20 minutes. The amount of histidyl-leucine produced from the substrate by the action of ACE was assayed microbiologically by the use of Leuconostoc mesenteroides P-60, and the ACE-inhibitory activity of the test compound was estimated therefrom.
*I50 = a dose required to induce 50% inhibition of the ACE activity

[2] = tested on: angiotensin-converting enzyme (ACE); test: ACE-inhibitory activity in vivo (pressor response to angiotensin I in anesthetized normotensive rats); design: species or system rat; conditions: 0.1 mg/kg i.v.; for Duration of activity: ACE inhibition in vivo; for ACE-inhibitory activity in vivo: percentage inhibition of ACE activity, angiotensin I 300 ng/kg i.v.
Protocol: ACE-inhibitory activity in vivo:
Normotensive rats weighing 300-400 g were anesthetized with urethane (1.5 g/kg, s.c.), and angiotensin I (300 ng/kg) was injected into the femoral vein of the rats. The pressor response to angiotensin I was measured with a pressure transducer connected to the carotid artery. Then, a test compound was injected intravenously thereto at a dose of 0.1 mg/kg, and angiotensin I (300 ng/kg) was further injected intravenously at intervals. The ACE-inhibitory activity of the test compound was estimated from the pressur responses to angiotensin I which were obtained before and after intravenous injection of the test compound.
*percentage inhibition of ACE activity in vivo

[3] = tested on: spontaneously hypertensive rats (SHR); test: Hypotensive activity in SHR (systolic blood pressure, tail plethysmographic technique); assay type: in vivo, rat; conditions: 50 mg/kg orally; for Decrease in blood pressure (-Δ mm Hg): SHR fasted overnight, systolic; for Duration of action: hypotensive action, SHR
Protocol: Hypotensive activity in SHR:
A test compound (dose: 50 mg/kg) suspended in an aqueous carboxymethylcellulose solution was administered orally to spontaneously hypertensive rats (SHR) fasted overnight. The systolic blood pressure of the rats was measured by the tail plethysmographic technique (The Journal of Laboratory and Clinical Medicine 78(1971), page 957). The hypotensive activity of the test compound was estimated from the decreased level of blood pressure.

[4] = dose required to induce 50% inhibition of the ACE activity, pig renal cortex ACE, 37° C., 20 minutes, read-out: ACE-inhibitory activity in vitro I50

IC50 [1, 4] [µM] | SMILES | Duration of activity [2] [min] | ACE-inhibitory activity in vivo [2] | other results
0.14 | O=C(O)CCN(C(=O)N1Cc2ccccc2C[C@H]1C(=O)O)C1CC1 [3(S)-2-[N-cyclopropyl-N-(2-carboxyethyl)-carbamoyl]-1,2,3,4-tetrahydroisoquinoline-3-carboxylic acid di-dicyclohexylamine salt] | – | – | –
0.011 | CCN(CCC(=O)O)C(=O)N1Cc2ccccc2C[C@H]1C(=O)O [3(S)-2-[N-ethyl-N-(2-carboxyethyl)carbamoyl]-1,2,3,4-tetrahydroisoquinoline-3-carboxylic acid calcium salt] | – | – | IC50 ([1]; in vitro, ACE isolated from pig's kidney, read-out: 50% inhibition of the activity of the enzyme at a concentration of): ~0.011 µM
0.14 | C=CCN(CCC(=O)O)C(=O)N1Cc2ccccc2C[C@H]1C(=O)O [3(S)-2-[N-allyl-N-(2-carboxyethyl)carbamoyl]-1,2,3,4-tetrahydroisoquinoline-3-carboxylic acid di-L-lysine salt] | – | – | –
– | CCCCOC(=O)CCN(C(=O)N1Cc2ccccc2C[C@H]1C(=O)O)C(C)C [3(S)-2-[N-isopropyl-N-(2-n-butoxycarbonylethyl)carbamoyl]-1,2,3,4-tetrahydroisoquinoline-3-carboxylic acid L-lysine salt] | > 60 | > 60% | –
– | CC(C)N(CCC(=O)O)C(=O)N1Cc2ccccc2C[C@H]1C(=O)O [3(S)-2-[N-isopropyl-N-(2-carboxyethyl)carbamoyl]-1,2,3,4-tetrahydroisoquinoline-3-carboxylic acid di-dicyclohexylamine salt] | > 60 | > 60% | –
0.55 | CCCN(CCC(=O)O)C(=O)N1Cc2ccccc2C[C@H]1C(=O)O [3(S)-2-[N-n-propyl-N-(2-carboxyethyl)carbamoyl]-1,2,3,4-tetrahydroisoquinoline-3-carboxylic acid 2 dicyclohexylamine salt] | – | – | –
0.021 | CCN(CCC(=O)O)C(=O)N1Cc2ccccc2C[C@H]1C(=O)O [3(S)-2-[N-ethyl-N-2-carboxyethyl)carbamoyl]-1,2,3,4-tetrahydroisoquinoline-3-carboxylic acid di-sodium salt] | – | – | –
– | COC(=O)CCN(C(=O)N1Cc2ccccc2C[C@H]1C(=O)O)C(C)C [3(S)-2-[N-isopropyl-N-(2-methoxycarbonylethyl)carbamoyl]-1,2,3,4-tetrahydroisoquinoline-3-carboxylic acid L-lysine salt] | – | 40 - 60% | Duration of activity ([2]; 0.1 mg/kg): 30 to 60 min; Decrease in blood pressure (-Δ mm Hg) [3]: 36 mm Hg; Duration of action [3]: > 6 h
– | CCOC(=O)CCN(CC)C(=O)N1Cc2ccccc2C[C@H]1C(=O)O.NCCCC[C@H](N)C(=O)O [3(S)-2-[N-ethyl-N-(2-n-ethoxycarbonylethyl)carbamoyl]-1,2,3,4-tetrahydroisoquinoline-3-carboxyleic acid L-lysine salt] | – | – | Decrease in blood pressure (-Δ mm Hg) [3]: 25 mm Hg; Duration of action [3]: > 6 h
0.035 | C#CCN(CCC(=O)O)C(=O)N1Cc2ccccc2C[C@H]1C(=O)O [3(S)-2-[N-propargyl-N -(2-carboxyethyl)carbamoyl]-1,2,3,4-tetrahydroisoquinoline-3-carboxylic acid di-L-lysine salt] | – | – | –
– | COC(=O)CCN(C(=O)N1Cc2ccccc2C[C@H]1C(=O)O)C(C)C [3(S)-2-[N-isopropyl-N-(2-methoxycarbonylethyl)carbamoyl]-1,2,3,4-tetrahydroisoquinoline-3-carboxylic acid sodium salt] | – | – | Duration of activity ([2]; sodium salt, 0.1 mg/kg): > 60 min
0.61 | CN(CCC(=O)O)C(=O)N1Cc2ccccc2C[C@H]1C(=O)O [3(S)-2-[N-methyl-N-(2-carboxyethyl)carbamoyl]-1,2,3,4-tetrahydroisoquinoline-3-carboxylic acid 2 dicyclohexylamine salt] | – | – | –
– | CCCCOC(=O)CCN(CC)C(=O)N1Cc2ccccc2C[C@H]1C(=O)O [3(S)-2-[N-ethyl-N-(2-n-butoxycarbonylethyl)carbamoyl]-1,2,3,4-tetrahydroisoquinoline-3-carboxylic acid L-lysine salt] | > 60 | – | ACE-inhibitory activity in vivo ([2]; 0.1 mg/kg): 80% and > 60%
– | CCOC(=O)CCN(C)C(=O)N1Cc2ccccc2C[C@H]1C(=O)O [3(S)-2-[N-methyl-N-(2-ethoxycarbonylethyl)carbamoyl]-1,2,3,4-tetrahydroisoquinoline-3-carboxylic acid L-lysine salt] | > 60 | 40 - 60% | –
– | CCOC(=O)CCN(C(=O)N1Cc2ccccc2C[C@H]1C(=O)O)C(C)C [3(S)-2-[N-isopropyl-N-(2-ethoxycarbonylethyl)carbamoyl]-1,2,3,4-tetrahydroisoquinoline-3-carboxylic acid L-lysine salt] | > 60 | > 60% | –
– | CCOC(=O)CCN(CC)C(=O)N1Cc2ccccc2C[C@H]1C(=O)O [3(S)-2-[N-ethyl-N-(2-ethoxycarbonylethyl)carbamoyl]-1,2,3,4-tetrahydroisoquinoline-3-carboxylic acid L-lysine salt] | > 60 | > 60% | –
0.029 | CC(C)N(CCC(=O)O)C(=O)N1Cc2ccccc2C[C@H]1C(=O)O [3(S)-2-[N-isopropyl-N-(2-carboxyethyl)carbamonyl]-1,2,3,4-tetrahydroisoquinoline-3-carboxylic acid di-L-lysine salt] | – | – | –
– | CCOC(=O)CCN(CC)C(=O)N1Cc2ccccc2C[C@H]1C(=O)O [3(S)-2-[N-ethyl-N-(2-ethoxycarbonylethyl)carbamoyl]-1,2,3,4-tetrahydroisoquinoline-3-carboxylic acid 1/2 calcium salt] | – | – | Decrease in blood pressure (-Δ mm Hg) [3]: 26 mm Hg; Duration of action [3]: > 6 h
